Laboratory results taken from PMC12457114, “Comparison of the pharmacokinetic profiles of three triterpenoids after oral administration of a cucurbitacin tablet and nanosuspension by UHPLC-MS/MS” (Frontiers in Pharmacology, 2025).

Experiments:
[1] = Stability of the analytes in rat plasma under different storage conditions; type: in vitro ADME; conditions: for Stability (RE%) Post-preparative / Stability (RE%) Short-term / Stability (RE%) Long-term / Stability (RE%) Freeze-thaw: rat plasma, n = 6; for Stability (RE%) Post-preparative / Stability in rat plasma (in words): 12 h at 4 °C post-sample preparation; for Stability (RE%) Short-term: ambient temperature (25 °C) for 4 h; for Stability (RE%) Long-term / Stability in rat plasma (in words): storage at −20 °C; for Stability (RE%) Freeze-thaw: three freeze-thaw cycles (−20 °C/room temperature); for Stability in rat plasma (in words): 25 °C for 4 h, three freeze-thaw cycles
Text: Table 5 outlines the stability of LQC, MQC, and HQC in the rat plasma under different storage conditions.

[2] = Pharmacokinetic study in rats after oral administration of CUT and MP-NPs, plasma by UHPLC-MS/MS; conditions: male, Sprague Dawley, in vivo, n = 6, mean ± SD
Protocol: An Agilent 6430 triple quadrupole mass spectrometer with an ESI source interface (Agilent Technologies, Santa Clara, CA, United States) was used in conjunction with an Agilent 1290 UHPLC system (Agilent Technologies). A Waters ACQUITY HSS T3 Column (1.8 μm, 2.1 × 100 mm) (Waters, Manchester, UK) was also used for the separations. Gradient elution was performed using water (A) and methanol (B) as mobile phases. The gradient elution procedure was used for 0.0–1.0 min, 80%–80% B; 1.0–1.5 min, 80%–90% B; 1.5–3.0 min, 90%–90% B; 3.0–3.2 min, 90%–80% B; and 3.2–4 min, 80%–80% B. The analytical temperature was 35 °C, and the flow rate was 0.3 mL/min. An injection of 5 μL volume was administered, after which the needle was washed. Positive ion-mode analysis was performed for the samples. The capillary voltage was set to 4500 V, source temperature to 100 °C, and the desolvation temperature to 350 °C ([Wang et al., 2014]). High-purity nitrogen was used as the nebulizing gas, and nitrogen was used as the drying gas at a flow rate of 11 L/min. The Agilent Mass Hunter workstation was used to gather the experimental data ([Wang Z et al., 2023]).
A total of 12 male Sprague Dawley (SD) rats (weight: 220 ± 20 g) were provided by the Animal Experiment Center of Heilongjiang University of Traditional Chinese Medicine (Production license number: SYXK (Hei) 2021-010). The Laboratory Animal Ethics Committee of Heilongjiang University of Traditional Chinese Medicine approved the study (Approval No.: 2024053114).
Animals were randomly assigned to the following two experimental groups (n = 6 per group): CUT and MP-NPs. Treatments were administered once daily for seven consecutive days, with the plasma sampling performed at predetermined time points after administration. Dosage was calculated based on human-equivalent doses converted to rat pharmacokinetic parameters using interspecies scaling factors. The human-rat dose conversion procedure was used to determine the dose of CUT per rat to be 0.03 g. The recommended daily dosage for humans is 6 tablets. The dose of MP-NPs per rat was determined to be 0.06 g per rat using the human-rat dose conversion formula, whereas the dose of P. Melo for human usage was 3 g, with reference to the Pharmacopoeia of the People’s Republic of China 2025.
At 0.083, 0.25, 0.50, 1, 1.5, 2, 2.5, 3, 4, 6, 8, 12, and 24 h following oral administration of CUT and MP-NPs, 0.25 mL of plasma samples were sampled by rapidly collecting and centrifuging at 4 °C, followed by freezing at −20 °C for further analysis ([Yu et al., 2023]).
Blank plasma sample (100 μL) was vortexed for 60 s after adding 100 μL of IS. To guarantee complete extraction, 3 mL of dichloromethane was then added to each sample, followed by vortexing for 120 s. Subsequently, the samples were centrifuged for 10 min at 4 °C and 3,500 rpm. At 40 °C, the […] organic phase was carefully moved into a sterile tube, dried off with a mild stream of nitrogen gas, and then reconstituted in 100 μL of the original mobile phase. Following a 120 s vortex, the extracts were filtered through a 0.22 μm Millipore filter before subjecting them to quantitative analyses by injecting 5 μL of them into the UHPLC-MS/MS apparatus.
The established UHPLC-MS/MS method was applied to simultaneously measure the plasma concentrations of the three analytes in rats following dose administration. Pharmacokinetic parameters have attracted attention in exploring drug absorption and distribution. These parameters include T 1/2, C max, T max, and AUC (Table 6). The pharmacokinetics of SD rats following oral administration of CUT and MP-NPs were investigated through UHPLC-MS/MS. The plasma concentrations of the three analytes were calculated. […] The MP-NPs group reached C max more rapidly than the CUT group.

[3] = HQC (spiked 300.2 CuB, 600.2 CuD, 300.8 CuE ng/mL)
[4] = LQC (spiked 5.272 CuB, 25.30 CuD, 5.257 CuE ng/mL)
[5] = MQC (spiked 150.1 CuB, 300.1 CuD, 150.4 CuE ng/mL)
[6] = CUT group, oral cucurbitacin tablet 0.03 g per rat
[7] = MP-NPs group, oral MP-NPs(PVP-K30) 0.06 g per rat

Structure (SMILES) | Stability (RE%) Post-preparative [1, 3] | Stability (RE%) Short-term [1, 3] | Stability (RE%) Long-term [1, 3] | Stability (RE%) Freeze-thaw [1, 3] | Stability (RE%) Post-preparative [1, 4] | Stability (RE%) Short-term [1, 4] | Stability (RE%) Long-term [1, 4] | Stability (RE%) Freeze-thaw [1, 4] | Stability (RE%) Post-preparative [1, 5] | Stability (RE%) Short-term [1, 5] | Stability (RE%) Long-term [1, 5] | Stability (RE%) Freeze-thaw [1, 5] | Stability in rat plasma (in words) [1] | AUC(0-inf) [2, 6] | AUC(0-t) [2, 6] | Cmax [2, 6] | Tmax [2, 6] | half-life [2, 6] | AUC(0-inf) [2, 7] | AUC(0-t) [2, 7] | further results
CC(C)(O)/C=C/C(=O)[C@](C)(O)[C@H]1[C@H](O)C[C@@]2(C)[C@@H]3CC=C4[C@@H](C[C@H](O)C(=O)C4(C)C)[C@]3(C)C(=O)C[C@]12C [CuD, cucurbitacin D] | 7.032% | −5.861% | −2.272% | −7.765% | −3.854% | 4.262% | 5.336% | −3.242% | −8.805% | −4.154% | −5.533% | −8.420% | remained stable | 1160 ng·h/mL | 1030 ng·h/mL | 339 ± 24.4 ng/mL | 1.83 ± 0.683 h | 5.33 ± 0.991 h | 1480 ng·h/mL | 1260 ng·h/mL | Cmax [2, 7]: 365 ± 69.9 ng/mL; Tmax [2, 7]: 1.75 ± 0.61 h; half-life [2, 7]: 6.97 ± 2.92 h
CC(=O)OC(C)(C)/C=C/C(=O)[C@](C)(O)[C@H]1[C@H](O)C[C@@]2(C)[C@@H]3CC=C4[C@@H](C=C(O)C(=O)C4(C)C)[C@]3(C)C(=O)C[C@]12C [CuE, cucurbitacin E] | −8.572% | −3.143% | −3.035% | −1.361% | 6.711% | 6.050% | 8.213% | 7.947% | −2.053% | −4.192% | 5.814% | 1.424% | remained stable | 682 ± 126 ng·h/mL | 603 ± 125 ng·h/mL | 166 ± 13.8 ng/mL | 2.25 ± 0.521 h | 5.99 ± 1.23 h | 973 ± 269 ng·h/mL | 752 ± 150 ng·h/mL | Cmax [2, 7]: 236 ± 31.9 ng/mL; Tmax [2, 7]: 1.67 ± 0.612 h; half-life [2, 7]: 7.05 ± 2.7 h
